Data reported in patent US20250171438A1 (Agios Pharmaceuticals, Inc., priority 2022, published 2025).

Biological target: T1, human PAH with the R408W mutation (Homo sapiens, UniProt P00439, R408W)
T1 construct: expressed in transfected cells
T1 sequence (P00439 1-452 R408W): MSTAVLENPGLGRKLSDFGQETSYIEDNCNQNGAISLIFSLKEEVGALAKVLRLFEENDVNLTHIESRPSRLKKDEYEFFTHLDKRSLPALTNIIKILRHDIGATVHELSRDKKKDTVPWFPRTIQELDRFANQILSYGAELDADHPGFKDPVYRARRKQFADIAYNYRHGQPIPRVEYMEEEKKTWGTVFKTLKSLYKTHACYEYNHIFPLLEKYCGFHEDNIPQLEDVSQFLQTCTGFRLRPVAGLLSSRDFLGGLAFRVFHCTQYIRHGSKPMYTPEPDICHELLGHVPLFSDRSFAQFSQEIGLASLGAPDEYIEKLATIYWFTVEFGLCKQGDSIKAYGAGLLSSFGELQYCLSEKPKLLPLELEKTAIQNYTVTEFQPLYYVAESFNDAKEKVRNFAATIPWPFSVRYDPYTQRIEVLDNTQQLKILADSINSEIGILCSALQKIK
Experiment: Cell Based Phenylalanine Flux Assay
Settings: A375 cells expressing human R408W PAH; 24 hrs compound incubation; 13C-Tyrosine by LC-MS; average where tested multiple times; read-out: AC50

Row | SMILES | AC50 [µM]
1 | Cn1cc(-c2ncc(C(=O)N3CCc4[nH]cnc4[C@H]3c3nc4c(F)cccc4s3)o2)cn1 [Example 1346, (S)-(4-(4-fluorobenzo[d]thiazol-2-yl)-6,7-dihydro-1H-imidazo[4,5-c]pyridin-5(4H)-yl)(2-(1-methyl-1H-pyrazol-4-yl)oxazol-5-yl)methanone] | 0.5 to 1
2 | O=C(c1cnc(C(F)(F)F)o1)N1CCc2[nH]cnc2[C@H]1c1nc2ccccc2s1 [Example 1347] | < 0.5
3 | CC1(C)CC=C(c2ncc(C(=O)N3CCc4[nH]cnc4[C@H]3c3nc4ccccc4s3)s2)CC1 [Example 1351] | 0.5 to 1
4 | CC1(C)CC=C(c2ncc(C(=O)N3CCc4[nH]cnc4[C@@H]3c3nc4ccccc4s3)s2)CC1 [Example 1352, (R)-(4-(benzo[d]thiazol-2-yl)-6,7-dihydro-1H-imidazo[4,5-c]pyridin-5(4H)-yl)(2-(4,4-dimethylcyclohex-1-en-1-yl)thiazol-5-yl)methanone] | 1 to 5
5 | CC1(C)CCC(c2ncc(C(=O)N3CCc4[nH]cnc4[C@H]3c3nc4ccccc4s3)s2)CC1 [Example 1353] | < 0.5
6 | CC1(C)CCC(c2ncc(C(=O)N3CCc4[nH]cnc4[C@@H]3c3nc4ccccc4s3)s2)CC1 [Example 1354, (R)-(4-(benzo[d]thiazol-2-yl)-6,7-dihydro-1H-imidazo[4,5-c]pyridin-5(4H)-yl)(2-(4,4-dimethylcyclohexyl)thiazol-5-yl)methanone] | 1 to 5
7 | O=C(c1nnc(C2CC2)o1)N1CCc2[nH]cnc2[C@H]1c1nc2ccccc2s1 [Example 1363] | < 0.5
8 | O=C(c1nnc(C2CC2)o1)N1CCc2[nH]cnc2[C@@H]1c1nc2ccccc2s1 [Example 1364, (R)-(4-(benzo[d]thiazol-2-yl)-6,7-dihydro-1H-imidazo[4,5-c]pyridin-5(4H)-yl)(5-cyclopropyl-1,3,4-oxadiazol-2-yl)methanone] | 1 to 5
9 | O=C(c1nnc(-c2ccc(F)cn2)o1)N1CCc2[nH]cnc2[C@@H]1c1nc2ccccc2s1 [Example 1366, (R)-(4-(benzo[d]thiazol-2-yl)-6,7-dihydro-1H-imidazo[4,5-c]pyridin-5(4H)-yl)(5-(5-fluoropyridin-2-yl)-1,3,4-oxadiazol-2-yl)methanone] | 1 to 5
10 | O=C(c1nnc(-c2c(F)cccc2F)o1)N1CCc2[nH]cnc2[C@H]1c1nc2ccccc2s1 [Example 1367] | < 0.5
11 | O=C(c1nnc(-c2c(F)cccc2F)o1)N1CCc2[nH]cnc2[C@@H]1c1nc2ccccc2s1 [Example 1368, (R)-(4-(benzo[d]thiazol-2-yl)-6,7-dihydro-1H-imidazo[4,5-c]pyridin-5(4H)-yl)(5-(2,6-difluorophenyl)-1,3,4-oxadiazol-2-yl)methanone] | < 0.5
12 | O=C(c1nnc(-c2ccc(F)cc2)o1)N1CCc2[nH]cnc2[C@H]1c1nc2ccccc2s1 [Example 1369] | < 0.5
13 | O=C(c1nnc(-c2ccc(F)cc2)o1)N1CCc2[nH]cnc2[C@@H]1c1nc2ccccc2s1 [Example 1370, (R)-(4-(benzo[d]thiazol-2-yl)-6,7-dihydro-1H-imidazo[4,5-c]pyridin-5(4H)-yl)(5-(4-fluorophenyl)-1,3,4-oxadiazol-2-yl)methanone] | 1 to 5
14 | Cc1nc(-c2ccccn2)oc1C(=O)N1CCc2[nH]cnc2[C@H]1c1nc2ccccc2s1 [Example 1371] | < 0.5
15 | Cc1nc(-c2ccccn2)oc1C(=O)N1CCc2[nH]cnc2[C@@H]1c1nc2ccccc2s1 [Example 1372, (R)-(4-(benzo[d]thiazol-2-yl)-6,7-dihydro-1H-imidazo[4,5-c]pyridin-5(4H)-yl)(4-methyl-2-(pyridin-2-yl)oxazol-5-yl)methanone] | > 5
16 | Cc1nc(-c2cnn(C)c2)oc1C(=O)N1CCc2[nH]cnc2[C@@H]1c1nc2ccccc2s1 [Example 1375, (R)-(4-(benzo[d]thiazol-2-yl)-6,7-dihydro-1H-imidazo[4,5-c]pyridin-5(4H)-yl)(4-methyl-2-(1-methyl-1H-pyrazol-4-yl)oxazol-5-yl)methanone] | 1 to 5
17 | Cc1nc(-c2cnn(C)c2)oc1C(=O)N1CCc2[nH]cnc2[C@H]1c1nc2ccccc2s1 [Example 1376] | < 0.5
18 | Cc1nc(-c2cnn(C)c2)oc1C(=O)N1CCc2[nH]cnc2[C@@H]1c1nc2c(F)cccc2s1 [Example 1377, (R)-(4-(4-fluorobenzo[d]thiazol-2-yl)-6,7-dihydro-1H-imidazo[4,5-c]pyridin-5(4H)-yl)(4-methyl-2-(1-methyl-1H-pyrazol-4-yl)oxazol-5-yl)methanone] | > 5
19 | Cc1nc(-c2cnn(C)c2)oc1C(=O)N1CCc2[nH]cnc2[C@H]1c1nc2c(F)cccc2s1 [Example 1378, (S)-(4-(4-fluorobenzo[d]thiazol-2-yl)-6,7-dihydro-1H-imidazo[4,5-c]pyridin-5(4H)-yl)(4-methyl-2-(1-methyl-1H-pyrazol-4-yl)oxazol-5-yl)methanone] | < 0.5
20 | Cc1nn(C)cc1-c1ncc(C(=O)N2CCc3[nH]cnc3[C@H]2c2nc3ccccc3s2)o1 [Example 1381] | < 0.5
21 | Cc1nn(C)cc1-c1ncc(C(=O)N2CCc3[nH]cnc3[C@@H]2c2nc3ccccc3s2)o1 [Example 1382, (R)-(4-(benzo[d]thiazol-2-yl)-6,7-dihydro-1H-imidazo[4,5-c]pyridin-5(4H)-yl)(2-(1,3-dimethyl-1H-pyrazol-4-yl)oxazol-5-yl)methanone] | 1 to 5
22 | Cc1c(-c2ncc(C(=O)N3CCc4[nH]cnc4[C@H]3c3nc4ccccc4s3)o2)cnn1C [Example 1383] | < 0.5
23 | Cc1c(-c2ncc(C(=O)N3CCc4[nH]cnc4[C@@H]3c3nc4ccccc4s3)o2)cnn1C [Example 1384, (R)-(4-(benzo[d]thiazol-2-yl)-6,7-dihydro-1H-imidazo[4,5-c]pyridin-5(4H)-yl)(2-(1,5-dimethyl-1H-pyrazol-4-yl)oxazol-5-yl)methanone] | 1 to 5

Further lines, results first:

Row | AC50 [µM] | SMILES
24 | 1 to 5 | O=C(c1cnc(C(F)(F)F)o1)N1CCc2[nH]cnc2[C@@H]1c1nc2ccccc2s1 [Example 1348, (R)-(4-(benzo[d]thiazol-2-yl)-6,7-dihydro-1H-imidazo[4,5-c]pyridin-5(4H)-yl)(2-(trifluoromethyl)oxazol-5-yl)methanone]
25 | 1 to 5 | O=C(c1cnc(-c2ccc(C(F)(F)F)cn2)s1)N1CCc2[nH]cnc2[C@H]1c1nc2ccccc2s1 [Example 1349]
26 | 1 to 5 | O=C(c1cnc(-c2ccc(C(F)(F)F)cn2)s1)N1CCc2[nH]cnc2[C@@H]1c1nc2ccccc2s1 [Example 1350, (R)-(4-(benzo[d]thiazol-2-yl)-6,7-dihydro-1H-imidazo[4,5-c]pyridin-5(4H)-yl)(2-(5-(trifluoromethyl)pyridin-2-yl)thiazol-5-yl)methanone]
27 | 1 to 5 | O=C(c1cnc(-c2ccc(C(F)(F)F)nc2)s1)N1CCc2[nH]cnc2[C@@H]1c1nc2ccccc2s1 [Example 1355, (R)-(4-(benzo[d]thiazol-2-yl)-6,7-dihydro-1H-imidazo[4,5-c]pyridin-5(4H)-yl)(2-(6-(trifluoromethyl)pyridin-3-yl)thiazol-5-yl)methanone]
28 | 0.5 to 1 | O=C(c1cnc(-c2ccc(C(F)(F)F)nc2)s1)N1CCc2[nH]cnc2[C@H]1c1nc2ccccc2s1 [Example 1356]
29 | < 0.5 | O=C(c1cnc(-c2cc(C(F)(F)F)ccn2)s1)N1CCc2[nH]cnc2[C@H]1c1nc2ccccc2s1 [Example 1357]
30 | 1 to 5 | O=C(c1cnc(-c2cc(C(F)(F)F)ccn2)s1)N1CCc2[nH]cnc2[C@@H]1c1nc2ccccc2s1 [Example 1358, (R)-(4-(benzo[d]thiazol-2-yl)-6,7-dihydro-1H-imidazo[4,5-c]pyridin-5(4H)-yl)(2-(4-(trifluoromethyl)pyridin-2-yl)thiazol-5-yl)methanone]
31 | < 0.5 | Cc1c(-c2ncc(C(=O)N3CCc4[nH]cnc4[C@H]3c3nc4ccccc4s3)s2)cnn1C [Example 1359]
32 | 1 to 5 | Cc1c(-c2ncc(C(=O)N3CCc4[nH]cnc4[C@@H]3c3nc4ccccc4s3)s2)cnn1C [Example 1360, (R)-(4-(benzo[d]thiazol-2-yl)-6,7-dihydro-1H-imidazo[4,5-c]pyridin-5(4H)-yl)(2-(1,5-dimethyl-1H-pyrazol-4-yl)thiazol-5-yl)methanone]
33 | < 0.5 | O=C(c1cnc(-c2cnn(CC(F)(F)F)c2)s1)N1CCc2[nH]cnc2[C@H]1c1nc2ccccc2s1 [Example 1361]
34 | 1 to 5 | O=C(c1cnc(-c2cnn(CC(F)(F)F)c2)s1)N1CCc2[nH]cnc2[C@@H]1c1nc2ccccc2s1 [Example 1362, (R)-(4-(benzo[d]thiazol-2-yl)-6,7-dihydro-1H-imidazo[4,5-c]pyridin-5(4H)-yl)(2-(1-(2,2,2-trifluoroethyl)-1H-pyrazol-4-yl)thiazol-5-yl)methanone]
35 | < 0.5 | O=C(c1cnc(-c2ncccc2F)s1)N1CCc2[nH]cnc2[C@H]1c1nc2ccccc2s1 [Example 1373]
36 | 0.5 to 1 | O=C(c1cnc(-c2ncccc2F)s1)N1CCc2[nH]cnc2[C@@H]1c1nc2ccccc2s1 [Example 1374, (R)-(4-(benzo[d]thiazol-2-yl)-6,7-dihydro-1H-imidazo[4,5-c]pyridin-5(4H)-yl)(2-(3-fluoropyridin-2-yl)thiazol-5-yl)methanone]
37 | < 0.5 | Cc1nn(C)cc1-c1ncc(C(=O)N2CCc3[nH]cnc3[C@H]2c2nc3ccccc3s2)s1 [Example 1379]
38 | 1 to 5 | Cc1nn(C)cc1-c1ncc(C(=O)N2CCc3[nH]cnc3[C@@H]2c2nc3ccccc3s2)s1 [Example 1380, (R)-(4-(benzo[d]thiazol-2-yl)-6,7-dihydro-1H-imidazo[4,5-c]pyridin-5(4H)-yl)(2-(1,3-dimethyl-1H-pyrazol-4-yl)thiazol-5-yl)methanone]
